Data: patent US5223519A, “4-hydroxypyridine derivatives, useful for treating circulatory diseases” (Mercian Corporation, priority 1990, dated 1993)
Where two headings read alike, the source gives them in different places.

Columns and labels:
[1] = system: norepinephrine- or KCl-contracted rat thoracic aorta; test: Vasodilating activity: relaxation of contracted thoracic aorta helical strips; set-up: species or system Male Sprague-Dawley rats; conditions: for IC50: cumulative application, pH 7.4, 37° C.; for relaxation of the aorta compared with papaverine: vs papaverine, norepinephrine or KCl contraction
Method: Male Sprague-Dawley rats weighing 250-300 g were sacrificed by cervical dislocation and exsanguinated. The thoracic aorta was dissected out and helical strips, 2 mm wide and 10 mm long, were prepared. Each preparation was mounted in a 10 ml organ bath containing physiological saline solution (Krebs-Henzeleit solution, pH 7.4). The solution was gassed with 95% O2 - 5% CO2 at 37° C. and a resting tension of 0.5 g was applied. Tissues were allowed to equilibrate for at least 60 minutes before the application of test substances. The developed tension was measured isometrically with a force-displacement transducer and recorded on pen-recorder. Tissues had been contracted with 10^-7 M norepinephrine or isotonic 60 mM KCl and test substances were applied cumulatively.

blood pressure = test: Depressor effect in anesthetized spontaneously hypertensive rats (i.v.); assay type: in vivo, Male spontaneously hypertensive rats (SHR rats); set-up: Vasodepression / Duration time: unit not given here; conditions: for Duration time / Vasodepression: injected into femoral vein
Method: Male spontaneously hypertensive rats (SHR rats), 25-31 weeks old, were anesthetized with 40 mg/kg of pentobarbital sodium injected intraperitoneally. For the measurement of blood pressure, a cannula was inserted into the left carotid artery and connected to a multipurpose polygraph through a pressure transducer. Each animal was allowed to equilibrate for at least 30 minutes before injection and test substances were injected into the femoral vein through a polyethylene tube.

ICR male mice = test: Acute toxicity in mice (i.v.); assay type: in vivo; conditions: five mice per dose
Method: The acute toxicity of Mer-A2026A was determined in ICR male mice. Five mice were used at each dose.

[2] = 10^-7 M norepinephrine contraction, read-out: IC50 Norepinephrine (concentration needed to induce a 50% decrease in norepinephrine-induced contraction)
[3] = isotonic 60 mM KCl contraction, read-out: IC50 Isotonic KCl (concentration needed to induce a 50% decrease in KCl-induced contraction)

COc1cc(O)c(C)c(C/C=C(\C)C/C=C/C(C)=C/C(C)C(O)/C(C)=C/C(C)C)n1 (centres unmarked) [Mer-A2026A]
IC50 [1, 2]: 200 nM
IC50 [1, 3]: 1000 nM
relaxation of the aorta compared with papaverine [1]: more greatly relaxed the aorta than papaverine
Duration time (blood pressure; 10 μg/kg): 0.2
Vasodepression (blood pressure; 10 μg/kg): 3.6
Duration time (blood pressure; 30 μg/kg): 9.4
Vasodepression (blood pressure; 30 μg/kg): 25.0
Duration time (blood pressure; 100 μg/kg): 24.5
Vasodepression (blood pressure; 100 μg/kg): 47.7
depressor effect (in words) (blood pressure; SHR rats, i.v., refers to Table 3): markedly prolonged the duration time and decreased the blood pressure
solubility in commonly available organic solvents (Solubility): soluble
solubility in water (Solubility): insoluble
acute toxicity (survival) (ICR male mice; 250 μg/Kg intravenous): all survived
acute toxicity (deaths) (ICR male mice; 500 μg/Kg intravenous): sacrificed the one mouse

COc1ccc(Cc2nccc3cc(OC)c(OC)cc23)cc1OC [Papaverine, reference compound]
IC50 [1, 2]: 4700 nM
IC50 [1, 3]: 17000 nM
Duration time (blood pressure; 1000 μg/kg): 2.2
Vasodepression (blood pressure; 1000 μg/kg): 52.0

C/C=C(\C)C(O)C(C)/C=C(C)/C=C/C/C(C)=C/Cc1nc(OC)cc(O)c1C (centres unmarked) [Mer-A2026B]
IC50 [1, 2]: 770 nM
IC50 [1, 3]: 400 nM
relaxation of the aorta compared with papaverine [1]: more greatly relaxed the aorta than papaverine
solubility in commonly available organic solvents (Solubility): soluble
solubility in water (Solubility): insoluble
